“Also recorded” adds a separate entry of the source. Where two headings read alike, the source gives them in different places.
What was measured:
[1] = system: SUM159 cells; assay: TUNEL assay, apoptotic cells; format: cell-based, human; conditions: 4 days of treatment
Source text: (§1) Cell viability. […] After one day, treatment with repertaxin was started. […]. […] Nuclei were counterstained with DAPI/antifade (Invitrogen).

[2] = system: FAK Tyr397 and AKT Ser473 phosphorylation; assay: Western blotting of FAK/AKT activation in HCC1954; format: cell-based, human; conditions: 100 nM, two days
Method: (§2) Western blotting. Cells were lysed in a laemmli buffer and loaded onto SDS-polyacrylamide gels. Blots were incubated with the respective primary antibodies diluted in TBST (containing 0.1% Tween20 and 2% BSA) either overnight at 4o, or 2 hours at room temperature. Blots were washed and incubated with appropriate secondary antibodies (GE Healthcare, UK) and detected using SuperSignal West Pico Chemiluminescent Substrate (Pierce).

[3] = system: ALDH1; assay: Immunohistochemistry of ALDH1 in xenotransplants; format: in vivo, NOD/SCID mice; conditions: compared to untreated tumors
Method: (§3) Immunostaining. For immunofluorescent staining, sorted CXCR1-positive cells were fixed with 95% methanol at −20° C. for 10 minutes. Cells were rehydrated in PBS and incubated with respective antibodies at room temperature for 1 hour. Primary antibodies used were P-FAK (1:50, Cell Signaling Technology), P-AKT (1:300, Cell Signaling Technology), and FOXO3a (1:250, Cell Signaling Technology). Slides were then washed and incubated 30 minutes with PE conjugated secondary antibodies (Jackson labs). The nuclei were counterstained with DAPI/antifade (Invitrogen) and coverslipped. […] Immunohistochemistry for the detection of ALDH1 (1:100, BD biosciences), P-FAK, P-AKT, FOXO3a expression was done on paraffin section (Ginestier et al. Am. J Pathol. 161:1223-1233, herein incorporated by reference in its entirety). Staining was done utilizing the Histostainplus kit (Zymed laboratories). Diaminobenzidine (DAB) or 3-amino-9-ethylcarbazole (AEC) was used as chromogen and sections were counterstained with hematoxylin.

[4] = system: CD44+/CD24- cell population of MC1, UM2, UM3 xenografts; assay: CD44+/CD24- cells in treated tumors (flow cytometry); design: species or system NOD/SCID mice; conditions: mouse, in vivo
Method: Animal model. […] Cells from these tumors were transplanted orthotopically in the humanized cleared fat-pad of NOD/SCID mice, without cultivation in vitro. […] 50,000 cells from each xenotransplants were injected in the humanized fat pad of NOD/SCID mice and monitored the tumor growth. […] The animals were euthanized when the tumors were approximately 1.5 cm in the largest diameter, to avoid tumor necrosis and in compliance with regulations for use of vertebrate animal in research. A portion of each fat pad injected was fixed in formalin and embedded in paraffin for histological analysis. The rest of the tumor cells were re-implantated into secondary NOD/SCID mice. Serial dilutions of cells were utilized for the re-implantation with injection of 10,000, 1,000, and 100 cells for each treated tumor.
Flow cytometry analysis. […] CD95/FAS staining were performed utilizing an anti-CD95 labeled APC (1:20, BD biosciences). […] Fresh cells were stained with 1 μg/ml PI (Sigma) for 5 min for viability.

[5] = system: FOXO3A; assay: Immunofluorescence staining of FOXO3A localization in SUM159 cells; format: cell-based, human
Method: (§4) The non-treated SUM159 cells presented 80% of cells positive in the cytoplasm for FOXOA3. […] The change in FOXOA3 cellular localation from the cytoplasm to the nucleus indicates an activation of FOXOA3 protein.
as §3

[6] = system: phospho-FAK and phospho-AKT; assay: Immunofluorescence staining of p-FAK and p-AKT in SUM159 cells; format: cell-based, human; conditions: for phospho-FAK and phospho-AKT expression (immunofluorescence): sorted CXCR1-positive cells
Method: as §4, §3

[7] = phase I and phase II clinical trials, cited from earlier work
[8] = system: SUM159 PTEN-siRNA and SUM159 Ad-FAK cells; assay: Repertaxin on SUM159 PTEN-siRNA and SUM159 Ad-FAK cells (western, immunofluorescence, MTT, ALDEFLUOR); format: cell-based, human; conditions: for FAK and AKT activity / FOXO3A activation in cells with PTEN deletion or FAK overexpression: 100 nM, two days
Source text: Cell viability. […] Nuclei were counterstained with DAPI/antifade (Invitrogen).
ALDEFLUOR assay. The ALDEFLUOR kit (StemCell technologies) was used to isolate the population with high ALDH enzymatic activity using a FACStarPLUS (Becton Dickinson) as previously described (Ginestier et al. Cell Stem Cell 1:555-567, herein incorporated by reference in its entirety). In order to eliminate cells of mouse origin from the xenotransplanted tumors, cell population was stained with an anti-H2Kd antibody (BD biosciences, 1/200, 20 min on ice) followed by staining with a secondary antibody labeled with phycoerythrin (PE) (Jackson labs, 1/250, 20 min on ice).
as §2, §3
Virus infection. […] All lentiviral constructs were prepared by the University of Michigan Vector. An adenoviral construct for the overexpression of FAK (Ad-FAK-GFP) was also utilized (Luo et al. Cancer Res. 69:466-474, herein incorporated by reference in its entirety). Cells infection with different vectors was performed as previously described (Charafe-Jauffret et al. Cancer Res. 69:1302-1313, herein incorporated by reference in its entirety). Efficiency of infection was verified by measuring the percentage of DsRed or GFP expressing cells.

[9] = system: MDA-MB-453 cells; assay: MTT assay, cell viability of MDA-MB-453 cells; format: cell-based, human; conditions: MDA-MB-453 (PTEN mutation), repertaxin 100 nM
Source text: as §1

[10] = system: SUM159 cells; assay: Metastasis formation after intracardiac injection of SUM159 cells (bioluminescence); format: in vivo, NOD/SCID mice; conditions: 250,000 cells intracardiac, repertaxin 15 mg/kg s.c. twice a day 28 days vs saline
Method: A SUM159 cell line was infected with a lentivirus expressing luciferase and inoculated 250,000 luciferase infected cells in the heart of NOD/SCID mice. The mice were organized into two groups.
Intracardiac inoculation. Six weeks-old NOD/SCID mice were anesthetized with 2% isofluorane/air mixture and injected in the heart left ventricle with 250,000 cells in 100 μL of sterile Dulbecco's PBS lacking Ca2+ and Mg2+. […] Twelve hours after intracardiac injections, mice were begun on twice per day repertaxin injections or saline for the controls.
Bioluminescence detection. Baseline bioluminescence was assessed before inoculation and each week thereafter inoculations. Bioluminescence detection procedures was performed as previously described (Charafe-Jauffret et al. Cancer Res. 69:1302-1313, herein incorporated by reference in its entirety). Normalized photon flux represents the ratio of the photon flux detected each week after inoculations and the photon flux detected before inoculation.

## CC(C)Cc1ccc([C@@H](C)C(=O)NS(C)(=O)=O)cc1 [Repertaxin]
[1]
  apoptotic cells (TUNEL): 36%
[2]
  FAK Tyr397 and AKT Ser473 phosphorylation (western blot): decrease in FAK Tyr397 and AKT Ser473 phosphorylation
[2]; listed as repertaxin
  FAK Tyr397 and AKT Ser473 phosphorylation (western blot): decrease in FAK Tyr^397 and AKT Ser^473 phosphorylation
[3]
  ALDH1-positive cells / ALDH1 expression in treated tumors: decrease in ALDH1-positive cells; also recorded: decrease of ALDH1 expression
[4]
  percent of CD44+/CD24- cells in residual tumors: reduction
[5]; SUM159, 100 nM, 2 days
  cells positive in the nucleus for FOXOA3: 80%
[5]; sorted CXCR1-positive cells, listed as repertaxin
  FOXO3A localization (immunofluorescence): shuttled to the nucleus; also recorded: re-localization of FOXO3A to the nucleus
[6]; SUM159, 100 nM, 2 days
  p-FAK and p-AKT (immunofluorescence): complete inactivation
[6]
  phospho-FAK and phospho-AKT expression (immunofluorescence): disappearance of phospho-FAK
[6]; listed as repertaxin
  phospho-FAK and phospho-AKT expression (immunofluorescence): dramatic decrease of phospho-FAK and phospho-AKT expression
[7]
  toxicity in clinical studies: lack of toxicity
[7]; listed as Repartaxin
  toxicity in clinical studies: little toxicity
[8]
  ALDEFLUOR-positive population of cells with PTEN deletion or FAK overexpression: did not alter the proportion of ALDEFLUOR-positive SUM159 PTEN knockdown cells
  FAK and AKT activity / FOXO3A activation in cells with PTEN deletion or FAK overexpression: did not induce FOXO3A activation
[8]; listed as repertaxin
  FAK and AKT activity / FOXO3A activation in cells with PTEN deletion or FAK overexpression: PTEN knockdown blocked the effect of repertaxin treatment on FAK and AKT activity; also recorded: PTEN deletion and FAK overexpression blocked the effect of repertaxin treatment on FAK and AKT activity
  ALDEFLUOR-positive population of cells with PTEN deletion or FAK overexpression: maintenance of the ALDELFUOR-positive populations
[8]; 3 days of treatment
  cell viability (MTT) of cells with PTEN deletion or FAK overexpression: did not display any decrease in cell viability; also recorded: developed resistance to repertaxin
[9]
  cell viability (MTT): no effect; also recorded: did not have any effect on cell viability
[9]; listed as repertaxin
  cell viability (MTT): did not effect the viability
[10]
  metastasis formation (normalized photon flux): statistically significant increase of metastasis formation in the group of mice treated with saline solution; also recorded: significantly reduced metastasis formation; also recorded: reduces the metastatic potential
[10]; listed as repertaxin
  metastasis formation (normalized photon flux): statistically significant decrease in metastasis formation

— patent publication US9606124B2, “Methods of detecting and treating stem-cell containing solid tumors” (The Regents of The University of Michigan, priority 2008, dated 2017)
